Patent publication US20080090900A1, “ANTIBIOTIC BUSHRIN” (University of Karachi, priority 2006, published 2008)

Tested on: Clostridium sporogenes
Test: microbe, parasite or virus in culture
Assay type: cell-based

For Cc1cc(O)c2c(c1)C=CC(C)(c1ccoc1)C2 (stereo not shown) [Compound 1, 7-(3-furyl)-3,7-dimethyl-7,8-dihydro-1-naphthalenol], the “antibacterial activity” value was “less active”.
